# Test results published in US20080221074A1, “Drug Screen and Treatment Method” (priority 2006, published 2008).
# Experiments:
# [1] = test system: human T lymphocytes (PBMC); assay: human mixed lymphocyte reaction (MLR); assay type: cell-based; conditions: 300 nM or 30 nM
# [2] = test system: insulin sensitivity in db/db diabetic mice; assay: hyperinsulinemic-euglycemic clamp; assay type: in vivo; conditions: oral gavage 14 days; insulin 10 mU/kg/min
# Method: Glucose lowering in 8 week old db/db diabetic mice. The hyperinsulinemic-euglycemic clamp protocol was conducted to measure insulin sensitivity in vivo. In this procedure, insulin was administered to raise the insulin concentration while glucose was infused to maintain euglycemia or a fixed, normal blood glucose level (about 180 mg/dL). […] The objective of this protocol was to investigate characterize the capacity of 17α-ethynylandrost-5-ene-3β,7β,17β-triol and androst-5-ene-3β,7β,16α,17β-tetrol to ameliorate systemic insulin resistance and improve whole body glucose disposal in the hyperinsulinemic-euglycemic clamp model. The degree of skeletal muscle and hepatic insulin sensitivity and tissue specific glucose uptake were also assessed. The animals were dosed daily by oral gavage for 14 days. On Day 10 of treatment catheters were implanted in the carotid artery and jugular vein. On the day of the clamp (day 14) the compound was administered at 7:30 am.
# Body weight and glucose concentration were assessed on day 0, 7 and day 14 of treatment. On day 14 a euglycemic hyperinsulinemic clamp was performed. Food was removed at 7:30 am at 10:30 a primed continuous infusion of [3-^3H]-glucose (0.05 μCi/min). A baseline blood sample was taken at 12:50 (−10 min) and at 1:00 (0 min) a euglycemic hyperinsulinemic clamp was initiated by administering 10 mU /kg/min of insulin. Glucose was infused at a variable rate to clamp the glucose concentration at ˜180 mg/dl. A bolus of [^14C]-2deoxyglucose was given at the end of the study to assess tissue specific glucose uptake. Plasma ^14C 2-deoxyglucose was assessed at 122, 125, 130, 135, 145 min. […]
# Analysis was conducted as follows. Plasma samples were deproteinized with Ba(OH)2 (0.3 N) and ZnSO4 (0.3 N), dried and radioactivity was assessed on scintillation counter (Packard TRICARB 2900 TR, Meriden, Conn.). […] One supernatant was directly counted to determine radioactivity from both [14C] […] A second aliquot was treated with Ba(OH)2 and ZnSO4 to remove ^14C DGP and any tracer incorporated into glycogen and then counted to determine radioactivity from free [^14C]DG(2). [^14C]DGP was calculated as the difference between the two aliquots. […] Rg, an index of tissue specific glucose uptake was calculated as previously described (E.W. Kraegen et al., Am. J. Physiol., 248:E353-E362, 1985). Whole body glucose turnover was calculated as the ratio of the ^3H glucose infusion rate (dpm/kg/min) and arterial plasma glucose specific activity (dpm/mg). Endogenous glucose production was calculated as the difference between the whole body glucose turnover and the exogenous glucose infusion rate (R. N. Bergman et al., Endocr. Rev., 6:45-86, 1985).
# 11β-HSD1 = assay: expression of 11β-HSD1 in osteoblasts of treated mice; conditions: mouse, in vivo
# osteoprotegerin = osteoprotegerin levels in dexamethasone treated mice; assay type: in vivo; conditions: vehicle, dexamethasone and compound at 4 mg/kg/day; p<0.05
# Method: Osteoprotegerin levels in mice that were treated with vehicle and dexamethasone at 10 μg/day (positive control group) had 3.3 pMol/L osteoprotegerin, while animals treated with vehicle, dexamethasone and 17α-ethynyl-5-androstene-3β,7β,17β-triol at 4 mg/kg/day had 6.4 pMol/L osteoprotegerin (p<0.05).
# estrogen receptor-α = estrogen receptor-α (Homo sapiens, UniProt P03372); assay: interaction with sex hormone receptor; assay type: binding
# Sequence of estrogen receptor-α (P03372 whole entry): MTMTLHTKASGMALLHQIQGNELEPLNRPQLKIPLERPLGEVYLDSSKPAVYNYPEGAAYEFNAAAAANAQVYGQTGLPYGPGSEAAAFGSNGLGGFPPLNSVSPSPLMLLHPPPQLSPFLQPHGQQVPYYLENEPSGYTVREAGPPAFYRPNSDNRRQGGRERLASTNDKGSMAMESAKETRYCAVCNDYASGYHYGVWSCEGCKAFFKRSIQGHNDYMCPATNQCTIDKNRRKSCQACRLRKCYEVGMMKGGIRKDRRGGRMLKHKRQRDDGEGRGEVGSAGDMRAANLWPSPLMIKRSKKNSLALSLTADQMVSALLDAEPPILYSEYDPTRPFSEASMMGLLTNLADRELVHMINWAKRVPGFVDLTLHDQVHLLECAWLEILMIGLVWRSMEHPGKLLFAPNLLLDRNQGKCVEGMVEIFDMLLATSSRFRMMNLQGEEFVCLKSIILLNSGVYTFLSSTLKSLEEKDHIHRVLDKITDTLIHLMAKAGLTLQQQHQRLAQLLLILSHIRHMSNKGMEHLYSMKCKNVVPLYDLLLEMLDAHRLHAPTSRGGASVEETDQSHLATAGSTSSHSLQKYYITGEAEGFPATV
# estrogen receptor-β = estrogen receptor-β (Homo sapiens, UniProt Q92731); assay: interaction with sex hormone receptor; assay type: binding
# Sequence of estrogen receptor-β (Q92731 whole entry, species assumed): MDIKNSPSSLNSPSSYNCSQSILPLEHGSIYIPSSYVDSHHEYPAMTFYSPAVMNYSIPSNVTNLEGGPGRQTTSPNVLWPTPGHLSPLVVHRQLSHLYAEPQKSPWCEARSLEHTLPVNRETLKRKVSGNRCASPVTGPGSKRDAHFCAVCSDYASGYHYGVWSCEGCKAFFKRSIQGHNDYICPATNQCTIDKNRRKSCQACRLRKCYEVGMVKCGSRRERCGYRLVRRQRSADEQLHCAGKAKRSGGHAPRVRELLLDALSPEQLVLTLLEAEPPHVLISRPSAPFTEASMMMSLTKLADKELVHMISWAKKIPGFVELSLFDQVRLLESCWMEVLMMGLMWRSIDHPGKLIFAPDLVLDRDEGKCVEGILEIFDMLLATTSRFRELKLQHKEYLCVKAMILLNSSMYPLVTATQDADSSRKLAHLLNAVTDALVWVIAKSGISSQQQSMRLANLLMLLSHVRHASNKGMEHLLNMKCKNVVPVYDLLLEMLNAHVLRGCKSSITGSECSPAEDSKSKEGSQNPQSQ
smiles,measurement,setting,value
"C#C[C@]1(O)CC[C@H]2[C@@H]3[C@@H](O)C=C4C[C@@H](O)CC[C@]4(C)[C@H]3CC[C@@]21C [17α-ethynylandrost-5-ene-3β,7β,17β-triol]",immune suppression (inhibition of the MLR),[1],not appreciably immune suppressive
same,glucose infusion rate compared to vehicle control,[2],increased the glucose infusion rate
same,decrease of expression of 11β-HSD1 in osteoblasts,11β-HSD1,about 50%
same,osteoprotegerin,osteoprotegerin,6.4 pmol/L
same,interaction with estrogen receptor-α,estrogen receptor-α,do not interact
same,interaction with estrogen receptor-β,estrogen receptor-β,do not interact
